Results taken from ChEMBL document CHEMBL5726312, “TYK2 inhibitors and uses thereof” (2019).

Molecular target: Non-receptor tyrosine-protein kinase TYK2 (Homo sapiens, UniProt P29597)
Assay: Tyk2 & JAK2 Caliper Assay: The caliper machine employs an off chip mobility shift assay to detect phosphorylated peptide substrates from kinase assays, using microfluidics technology. The assays are carried out at ATP concentration equivalent to the ATP Km, and at 1 mM ATP. Compounds are serially diluted in DMSO then further diluted in assay buffer (25 mM HEPES, pH 7.5, 0.01% Brij-35, 0.01% Triton, 0.5 mM EGTA). 5 ul of diluted compound was added into wells first, then 10 ul of enzyme mix was added into wells, followed by 10 uL of substrate mix (peptide and ATP in 10 mM MgCl2) to start reaction. Reaction was incubated at 28° C. for 25 min and then added 25 ul stop buffer (100 mM HEPES, 0.015% Brij-35, 50 mM EDTA), followed by reading with Caliper. JAK2 at 1 nM final concentration and TYK2 at 9.75 nM are from Carna, and substrates used are ATP at 20 and 16 uM, respectively. JAK2 assay uses peptide 22 and TYK2 uses peptide 30 (Caliper), each at 3 uM.

Chain of Non-receptor tyrosine-protein kinase TYK2 (P29597 whole entry): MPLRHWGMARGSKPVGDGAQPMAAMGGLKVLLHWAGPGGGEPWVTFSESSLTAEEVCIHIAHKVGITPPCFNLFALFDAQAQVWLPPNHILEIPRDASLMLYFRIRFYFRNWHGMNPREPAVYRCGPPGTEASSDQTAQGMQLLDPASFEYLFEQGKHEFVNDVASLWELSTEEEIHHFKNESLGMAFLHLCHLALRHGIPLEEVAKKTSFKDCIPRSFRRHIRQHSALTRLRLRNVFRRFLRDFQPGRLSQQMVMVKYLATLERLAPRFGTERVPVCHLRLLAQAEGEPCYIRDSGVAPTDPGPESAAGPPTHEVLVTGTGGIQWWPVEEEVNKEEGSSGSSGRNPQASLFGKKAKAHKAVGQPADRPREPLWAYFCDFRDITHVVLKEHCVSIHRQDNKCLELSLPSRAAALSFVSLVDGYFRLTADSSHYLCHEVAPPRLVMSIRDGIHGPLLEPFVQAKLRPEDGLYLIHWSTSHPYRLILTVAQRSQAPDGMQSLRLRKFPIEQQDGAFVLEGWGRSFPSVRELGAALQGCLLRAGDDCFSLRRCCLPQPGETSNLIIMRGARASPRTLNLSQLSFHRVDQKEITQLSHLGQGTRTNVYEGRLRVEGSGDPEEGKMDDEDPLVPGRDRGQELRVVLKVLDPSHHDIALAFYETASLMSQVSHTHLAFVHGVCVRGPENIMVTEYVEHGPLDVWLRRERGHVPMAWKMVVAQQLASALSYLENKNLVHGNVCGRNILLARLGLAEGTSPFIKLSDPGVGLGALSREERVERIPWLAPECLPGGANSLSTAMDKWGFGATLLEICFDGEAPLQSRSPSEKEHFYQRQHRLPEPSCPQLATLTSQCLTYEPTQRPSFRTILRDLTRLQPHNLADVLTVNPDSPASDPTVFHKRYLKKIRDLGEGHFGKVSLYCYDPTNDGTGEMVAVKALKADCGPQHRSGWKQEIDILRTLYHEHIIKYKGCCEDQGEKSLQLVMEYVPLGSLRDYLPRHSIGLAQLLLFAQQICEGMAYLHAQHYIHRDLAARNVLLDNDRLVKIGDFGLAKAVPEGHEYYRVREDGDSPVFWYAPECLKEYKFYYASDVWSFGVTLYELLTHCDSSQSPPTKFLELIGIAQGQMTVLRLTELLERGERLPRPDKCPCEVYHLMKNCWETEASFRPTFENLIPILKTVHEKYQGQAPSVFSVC

Structure (SMILES): O=C1NCc2nc(-c3c(F)cccc3F)cc(Nc3ccc(C(=O)N4CCOCC4)cn3)c21
- Ki: < 10 nM

Structure (SMILES): CCNC(=O)c1ccc(Nc2cc(-c3c(F)cccc3C#N)nc3c2C(=O)NC3)nc1
- Ki: < 10 nM

Structure (SMILES): O=C1NCc2nc(-c3c(F)cccc3F)cc(Nc3ccc(N4CCOCC4=O)cn3)c21
- Ki: < 10 nM

Structure (SMILES): CCNC(=O)c1ccc(Nc2cc(-c3c(F)cccc3Cl)nc3c2C(=O)NC3)nc1
- Ki: < 10 nM

Structure (SMILES): CC1(c2ccc(Nc3nc(-c4c(F)cccc4F)nc4c3C(=O)NC4)cc2)COC1
- Ki: < 10 nM

Structure (SMILES): CC1CC(O)CC(C)N1c1ccc(Nc2cc(-c3c(F)cccc3F)nc3c2C(=O)NC3)nc1 (stereo not drawn)
- Ki: < 10 nM

Structure (SMILES): CC1(C)CCCC(=O)N1c1ccc(Nc2cc(-c3c(F)cccc3F)nc3c2C(=O)NC3)nc1
- Ki: < 10 nM

Structure (SMILES): O=C1NCc2nc(-c3c(F)cccc3F)cc(Nc3ccc(N4CC(F)(F)C4)cn3)c21
- Ki: < 10 nM

Structure (SMILES): O=C1NCc2nc(-c3c(F)cccc3F)cc(Nc3ccc(F)cn3)c21
- Ki: < 10 nM

Structure (SMILES): O=C1NCc2nc(-c3c(F)cccc3F)cc(Nc3ccc(N4CCCC(O)C4)cn3)c21 (stereo not drawn)
- Ki: < 10 nM

Structure (SMILES): O=C1NCc2nc(-c3c(F)cccc3F)cc(Nc3ccc(C4(O)CCOCC4)cn3)c21
- Ki: < 10 nM

Structure (SMILES): CC1(C)CCC(=O)N1c1ccc(Nc2cc(-c3c(F)cccc3F)nc3c2C(=O)NC3)nc1
- Ki: < 10 nM

Structure (SMILES): CC[C@@]1(c2ccc(Nc3nc(-c4c(F)cccc4F)nc4c3C(=O)NC4)cc2)CCNC1=O
- Ki: < 10 nM

Structure (SMILES): O=C1NCc2nc(-c3c(F)cccc3F)cc(Nc3ccc(C4=CCOCC4)cn3)c21
- Ki: < 10 nM

Structure (SMILES): O=C1NCc2nc(-c3c(F)cccc3F)c(F)c(Nc3ccc(N4CCOCC4)cn3)c21
- Ki: < 10 nM

Structure (SMILES): O=C1NCc2nc(-c3c(F)cccc3F)cc(Nc3ccc(N4CCN(CC(F)F)CC4)cn3)c21
- Ki: < 10 nM

Structure (SMILES): CC[C@]1(c2ccc(Nc3nc(-c4c(F)cccc4F)nc4c3C(=O)NC4)cc2)CCNC1=O
- Ki: < 10 nM

Structure (SMILES): O=C1NCc2nc(-c3c(F)cccc3F)cc(Nc3ccc(N4CCC[C@H](O)C4)cn3)c21
- Ki: < 10 nM

Structure (SMILES): CC1COCCN1c1ccc(Nc2cc(-c3c(F)cccc3F)nc3c2C(=O)NC3)nc1 (stereo not drawn)
- Ki: < 10 nM

Structure (SMILES): O=C1NCc2nc(-c3c(F)cccc3F)cc(Nc3ccc(N4CCC5(CC5)C4)cn3)c21
- Ki: < 10 nM

Structure (SMILES): COCCNC(=O)c1ccc(Nc2cc(-c3c(F)cccc3F)nc3c2C(=O)NC3)nc1
- Ki: < 10 nM

Structure (SMILES): CCNC(=O)c1ccc(Nc2cc(-c3c(F)cccc3F)nc3c2C(=O)NC3)cn1
- Ki: < 10 nM

Structure (SMILES): CN(c1ccc(Nc2cc(-c3c(F)cccc3F)nc3c2C(=O)NC3)nc1)C(C)(C)C
- Ki: < 10 nM

Structure (SMILES): CC1(O)CCN(C(=O)c2ccc(Nc3cc(-c4c(F)cccc4F)nc4c3C(=O)NC4)cc2)CC1
- Ki: < 10 nM

Structure (SMILES): CC(C)Oc1ccc(Nc2nc(-c3c(F)cccc3F)nc3c2C(=O)NC3)cc1
- Ki: < 10 nM

Structure (SMILES): C[C@@H]1CCC[C@H](C)N1c1ccc(Nc2cc(-c3c(F)cccc3F)nc3c2C(=O)NC3)nc1
- Ki: < 10 nM

Structure (SMILES): CC1(C)OCCN(c2ccc(Nc3cc(-c4c(F)cccc4F)nc4c3C(=O)NC4)nc2)C1=O
- Ki: < 10 nM

Structure (SMILES): CCNC(=O)c1cnc(Nc2cc(-c3c(F)cccc3F)nc3c2C(=O)NC3)cc1F
- Ki: < 10 nM

Structure (SMILES): CC1(C)CN(c2ccc(Nc3cc(-c4c(F)cccc4F)nc4c3C(=O)NC4)nc2)CC[C@@H]1O
- Ki: < 10 nM

Structure (SMILES): CCN(CC)C(=O)c1ccc(Nc2cc(-c3c(F)cccc3F)nc3c2C(=O)NC3)cc1
- Ki: < 10 nM

Structure (SMILES): CCNC(=O)Cc1ncc(Nc2nc(-c3c(F)cccc3F)nc3c2C(=O)NC3)cn1
- Ki: > 1000 nM

Structure (SMILES): O=C1NCc2nc(-c3c(F)cccc3F)cc(Nc3ccc(NS(=O)(=O)C(F)F)cn3)c21
- Ki: < 10 nM

Structure (SMILES): CCNC(=O)c1ccc(Nc2nc(-c3c(F)cccc3F)nc3c2C(=O)NC3)cc1
- Ki: < 10 nM

Structure (SMILES): O=C1NCc2nc(-c3c(F)cccc3F)cc(Nc3ccc(N4CCOCC4)nc3)c21
- Ki: < 10 nM

Structure (SMILES): CC1(C)CCN(c2ccc(Nc3cc(-c4c(F)cccc4F)nc4c3C(=O)NC4)nc2)CC1
- Ki: < 10 nM

Structure (SMILES): CC(C)(C)Nc1ccc(Nc2cc(-c3c(F)cccc3F)nc3c2C(=O)NC3)nc1
- Ki: < 10 nM

Structure (SMILES): COc1ccc(Nc2cc(-c3c(F)cccc3F)nc3c2C(=O)N[C@@H]3C)nc1
- Ki: < 10 nM

Structure (SMILES): C[C@@H]1CCC[C@@H](C)N1c1ccc(Nc2cc(-c3c(F)cccc3F)nc3c2C(=O)NC3)nc1
- Ki: < 10 nM

Structure (SMILES): O=C1NCc2nc(-c3c(F)cccc3F)cc(Nc3ccc(F)cc3)c21
- Ki: < 10 nM

Structure (SMILES): O=C(Cc1ccc(Nc2nc(-c3c(F)cccc3F)nc3c2C(=O)NC3)cc1)NC1CNC1
- Ki: < 10 nM

Structure (SMILES): O=C1NCc2nc(-c3c(F)cccc3F)cc(Nc3ccc(N4CCN(CCC(F)(F)F)CC4)cn3)c21
- Ki: < 10 nM

Structure (SMILES): COc1ccc(Nc2cc(-c3c(F)cccc3C#N)nc3c2C(=O)NC3)nc1
- Ki: < 10 nM

Structure (SMILES): CC(C)N1CCN(c2ccc(Nc3cc(-c4c(F)cccc4F)nc4c3C(=O)NC4)nc2)CC1
- Ki: < 10 nM

Structure (SMILES): CC(C)N1CCN(C(=O)c2ccc(Nc3cc(-c4c(F)cccc4F)nc4c3C(=O)NC4)cc2)CC1
- Ki: < 10 nM

Structure (SMILES): COC(=O)C(C)c1ccc(Nc2nc(-c3c(F)cccc3F)nc3c2C(=O)NC3)cc1 (stereo not drawn)
- Ki: < 10 nM

Structure (SMILES): CC1(O)CN(c2ccc(Nc3cc(-c4c(F)cccc4F)nc4c3C(=O)NC4)nc2)C1
- Ki: < 10 nM

Structure (SMILES): Cc1ccc(Nc2nc(-c3c(F)cccc3F)nc3c2C(=O)NC3)cc1
- Ki: < 10 nM

Structure (SMILES): C[C@@H]1COCCN1c1ccc(Nc2cc(-c3c(F)cccc3F)nc3c2C(=O)NC3)nc1
- Ki: < 10 nM

Structure (SMILES): C[C@H]1COC[C@H](C)N1c1ccc(Nc2cc(-c3c(F)cccc3F)nc3c2C(=O)NC3)nc1
- Ki: < 10 nM

Structure (SMILES): N#Cc1cccc(F)c1-c1cc(Nc2ccc(C(=O)N3CCOCC3)cc2)c2c(n1)CNC2=O
- Ki: < 10 nM

Structure (SMILES): CC(C)N1CCN(c2ccc(Nc3cc(-c4c(F)cccc4F)nc4c3C(=O)NC4)nc2)C(=O)C1
- Ki: < 10 nM

Structure (SMILES): O=C1NCc2nc(-c3c(F)cccc3F)cc(Nc3ccc(C(=O)N4CCC(F)(F)CC4)cc3)c21
- Ki: < 10 nM

Structure (SMILES): CN1CCN(C)[C@](C)(c2ccc(Nc3nc(-c4c(F)cccc4F)nc4c3C(=O)NC4)cc2)C1=O
- Ki: < 10 nM

Structure (SMILES): C[C@@H]1COC[C@@H](C)N1C(=O)c1ccc(Nc2cc(-c3c(F)cccc3F)nc3c2C(=O)NC3)cc1
- Ki: < 10 nM

Structure (SMILES): O=C1NCc2nc(-c3c(F)cccc3F)cc(Nc3ccc(N4C5COCC4C5)cn3)c21
- Ki: < 10 nM

Structure (SMILES): O=C1NCc2nc(-c3c(F)cccc3F)cc(Nc3ccc(C(=O)N4CCCCC4)cc3)c21
- Ki: < 10 nM

Structure (SMILES): O=C1NCc2nc(-c3c(F)cccc3F)cc(Nc3ccc(N4CCCOCC4)cn3)c21
- Ki: < 10 nM

Structure (SMILES): O=C1NCc2nc(-c3c(F)cccc3F)cc(Nc3ccc(N4CCCC4)cn3)c21
- Ki: < 10 nM
